Reference: ChEMBL document CHEMBL3885861, “Open TG-GATES”

Organism: Rattus norvegicus
Test: Open TG-GATES - Regimen: Daily Repeat
Format: toxicity, organism-based, Sprague-Dawley
Parameters: regimen Daily Repeat, gender Male, age 6 weeks
Details: in vivo, po, route gavage; for APTT / Bas / Eos / Fbg / Hb / Ht / Lym / MCH / MCHC / MCV / Mono / Neu / PT / Plat / RBC / Ret / WBC: tissue Blood; for KIDNEY_L / KIDNEY_R / KIDNEY_TOTAL: tissue Kidney; for LIVER: tissue Liver; for A/G / ALP / ALT / AST / BUN / CRE / Ca / Cl / DBIL / GLC / IP / K / LDH / Na / PL / RALB / TBIL / TC / TG / TP / gamma-GTP: tissue Plasma
[1] = 0 mg/kg, 72 h, dose level Control, time 3 day
[2] = 0 mg/kg, […], dose level Control, time 7 day
[3] = 0 mg/kg, […], dose level Control, time 14 day
[4] = 0 mg/kg, […], dose level Control, time 28 day
[5] = 10 mg/kg, 72 h, dose level Low, time 3 day
[6] = 10 mg/kg, […], dose level Low, time 7 day
[7] = 10 mg/kg, […], dose level Low, time 14 day
[8] = 10 mg/kg, […], dose level Low, time 28 day

## Nc1ccc(Cc2ccc(N)cc2)cc1
[1]
  TERMINAL_BW: 240.9 g
  APTT: 13.2 s
  Bas: 0%
  Eos: 1%
  Fbg: 284.6 mg/dL
  Hb: 13.1 g/dL
  Ht: 38.4%
  Lym: 75%
  MCH: 21.1 pg
  MCHC: 34%
  MCV: 62.1 fL
  Mono: 2.8%
  Neu: 20.2%
  PT: 11.7 s
  Plat: 134 x10_4/uL
  RBC: 618.2 x10_4/ul
  Ret: 6.4%
  WBC: 93.3 x10_2/uL
  KIDNEY_L: 1 g
  KIDNEY_R: 1 g
  KIDNEY_TOTAL: 2 g
  LIVER: 11.1 g
  A/G: 0.8
  ALP: 1856.4 IU/L
  ALT: 42 IU/L
  AST: 71.6 IU/L
  BUN: 15.2 mg/dL
  CRE: 0.2 mg/dL
  Ca: 11 mg/dL
  Cl: 105.4 meq/L
  DBIL: 0.018 mg/dL
  GLC: 177.2 mg/dL
  IP: 7.6 mg/dL
  K: 4 meq/L
  LDH: 76.6 IU/L
  Na: 142.8 meq/L
  PL: 139 mg/dL
  RALB: 2.6 g/dL
  TBIL: 0.038 mg/dL
  TC: 75 mg/dL
  TG: 108.2 mg/dL
  TP: 5.8 g/dL
  gamma-GTP: 1 IU/L
[2]
  TERMINAL_BW: 282.7 g
  APTT: 15.2 s
  Bas: 0.2%
  Eos: 0.8%
  Fbg: 277.4 mg/dL
  Hb: 13.6 g/dL
  Ht: 39.5%
  Lym: 75.4%
  MCH: 20.9 pg
  MCHC: 34.5%
  MCV: 60.7 fL
  Mono: 2.2%
  Neu: 20.4%
  PT: 11.4 s
  Plat: 137.3 x10_4/uL
  RBC: 650.6 x10_4/ul
  Ret: 5.3%
  WBC: 99.1 x10_2/uL
  KIDNEY_L: 1.2 g
  KIDNEY_R: 1.1 g
  KIDNEY_TOTAL: 2.3 g
  LIVER: 12.4 g
  A/G: 0.9
  ALP: 1837.2 IU/L
  ALT: 37 IU/L
  AST: 63.8 IU/L
  BUN: 17 mg/dL
  CRE: 0.2 mg/dL
  Ca: 11 mg/dL
  Cl: 106 meq/L
  DBIL: 0.022 mg/dL
  GLC: 177.6 mg/dL
  IP: 6.8 mg/dL
  K: 4.1 meq/L
  LDH: 65.6 IU/L
  Na: 143.2 meq/L
  PL: 138.6 mg/dL
  RALB: 2.7 g/dL
  TBIL: 0.066 mg/dL
  TC: 70.6 mg/dL
  TG: 106 mg/dL
  TP: 5.8 g/dL
  gamma-GTP: 1 IU/L
[3]
  TERMINAL_BW: 342.6 g
  APTT: 14.9 s
  Bas: 0.2%
  Eos: 1%
  Fbg: 273 mg/dL
  Hb: 13.4 g/dL
  Ht: 39%
  Lym: 73.8%
  MCH: 20.2 pg
  MCHC: 34.1%
  MCV: 59.3 fL
  Mono: 2.2%
  Neu: 22.6%
  PT: 11.2 s
  Plat: 158.2 x10_4/uL
  RBC: 661.2 x10_4/ul
  Ret: 7.2%
  WBC: 97.7 x10_2/uL
  KIDNEY_L: 1.3 g
  KIDNEY_R: 1.2 g
  KIDNEY_TOTAL: 2.5 g
  LIVER: 14.8 g
  A/G: 0.8
  ALP: 1483.2 IU/L
  ALT: 36.6 IU/L
  AST: 58.6 IU/L
  BUN: 15.4 mg/dL
  CRE: 0.2 mg/dL
  Ca: 11 mg/dL
  Cl: 104.6 meq/L
  DBIL: 0.022 mg/dL
  GLC: 172.2 mg/dL
  IP: 6.3 mg/dL
  K: 3.9 meq/L
  LDH: 79.4 IU/L
  Na: 143.2 meq/L
  PL: 147 mg/dL
  RALB: 2.7 g/dL
  TBIL: 0.052 mg/dL
  TC: 76.6 mg/dL
  TG: 133.4 mg/dL
  TP: 6.2 g/dL
  gamma-GTP: 1 IU/L
[4]
  TERMINAL_BW: 438.3 g
  APTT: 17.5 s
  Bas: 0.4%
  Eos: 0.8%
  Fbg: 284.2 mg/dL
  Hb: 14.9 g/dL
  Ht: 42.2%
  Lym: 78%
  MCH: 20.2 pg
  MCHC: 35.3%
  MCV: 57.2 fL
  Mono: 2%
  Neu: 17.6%
  PT: 11.9 s
  Plat: 120.3 x10_4/uL
  RBC: 738.4 x10_4/ul
  Ret: 2.2%
  WBC: 122.3 x10_2/uL
  KIDNEY_L: 1.5 g
  KIDNEY_R: 1.4 g
  KIDNEY_TOTAL: 2.9 g
  LIVER: 17.8 g
  A/G: 0.7
  ALP: 1089.4 IU/L
  ALT: 34.4 IU/L
  AST: 56.6 IU/L
  BUN: 15.2 mg/dL
  CRE: 0.2 mg/dL
  Ca: 10.9 mg/dL
  Cl: 105.2 meq/L
  DBIL: 0.02 mg/dL
  GLC: 176.4 mg/dL
  IP: 5.9 mg/dL
  K: 3.7 meq/L
  LDH: 67.6 IU/L
  Na: 144.4 meq/L
  PL: 141.2 mg/dL
  RALB: 2.7 g/dL
  TBIL: 0.058 mg/dL
  TC: 67.8 mg/dL
  TG: 168.2 mg/dL
  TP: 6.4 g/dL
  gamma-GTP: 1 IU/L
[5]
  TERMINAL_BW: 237.7 g
  APTT: 13.9 s
  Bas: 0.2%
  Eos: 0.8%
  Fbg: 280.2 mg/dL
  Hb: 13.3 g/dL
  Ht: 38.9%
  Lym: 75%
  MCH: 21.1 pg
  MCHC: 34.2%
  MCV: 61.5 fL
  Mono: 2.4%
  Neu: 20.8%
  PT: 11.9 s
  Plat: 149.6 x10_4/uL
  RBC: 632.8 x10_4/ul
  Ret: 5.9%
  WBC: 114.1 x10_2/uL
  KIDNEY_L: 1 g
  KIDNEY_R: 1 g
  KIDNEY_TOTAL: 1.9 g
  LIVER: 11.4 g
  A/G: 0.8
  ALP: 1752.4 IU/L
  ALT: 41 IU/L
  AST: 68.6 IU/L
  BUN: 16.2 mg/dL
  CRE: 0.2 mg/dL
  Ca: 10.9 mg/dL
  Cl: 106.6 meq/L
  DBIL: 0.018 mg/dL
  GLC: 181.4 mg/dL
  IP: 7.7 mg/dL
  K: 4.1 meq/L
  LDH: 63 IU/L
  Na: 143.6 meq/L
  PL: 146.2 mg/dL
  RALB: 2.7 g/dL
  TBIL: 0.032 mg/dL
  TC: 78.4 mg/dL
  TG: 114.4 mg/dL
  TP: 6 g/dL
  gamma-GTP: 1 IU/L
[6]
  TERMINAL_BW: 279.3 g
  APTT: 13.6 s
  Bas: 0.2%
  Eos: 0.4%
  Fbg: 279.2 mg/dL
  Hb: 13.4 g/dL
  Ht: 39.2%
  Lym: 69.8%
  MCH: 20.6 pg
  MCHC: 34.1%
  MCV: 60.6 fL
  Mono: 2.8%
  Neu: 26.2%
  PT: 11.3 s
  Plat: 144.1 x10_4/uL
  RBC: 648 x10_4/ul
  Ret: 5.5%
  WBC: 107.7 x10_2/uL
  KIDNEY_L: 1.1 g
  KIDNEY_R: 1.1 g
  KIDNEY_TOTAL: 2.2 g
  LIVER: 13 g
  A/G: 0.8
  ALP: 1642 IU/L
  ALT: 40.8 IU/L
  AST: 65 IU/L
  BUN: 16.8 mg/dL
  CRE: 0.2 mg/dL
  Ca: 11.4 mg/dL
  Cl: 104.6 meq/L
  DBIL: 0.026 mg/dL
  GLC: 182 mg/dL
  IP: 7.2 mg/dL
  K: 4.2 meq/L
  LDH: 60.6 IU/L
  Na: 143.6 meq/L
  PL: 143.8 mg/dL
  RALB: 2.7 g/dL
  TBIL: 0.07 mg/dL
  TC: 75.4 mg/dL
  TG: 105.6 mg/dL
  TP: 6 g/dL
  gamma-GTP: 1.4 IU/L
[7]
  TERMINAL_BW: 335.7 g
  APTT: 15.6 s
  Bas: 0%
  Eos: 0.8%
  Fbg: 283.8 mg/dL
  Hb: 14.1 g/dL
  Ht: 40.9%
  Lym: 78%
  MCH: 20.6 pg
  MCHC: 34.6%
  MCV: 59.5 fL
  Mono: 1.8%
  Neu: 19%
  PT: 11.5 s
  Plat: 146.2 x10_4/uL
  RBC: 687 x10_4/ul
  Ret: 4.3%
  WBC: 125.5 x10_2/uL
  KIDNEY_L: 1.2 g
  KIDNEY_R: 1.2 g
  KIDNEY_TOTAL: 2.3 g
  LIVER: 15.9 g
  A/G: 0.8
  ALP: 1500.2 IU/L
  ALT: 38.8 IU/L
  AST: 64.6 IU/L
  BUN: 17 mg/dL
  CRE: 0.2 mg/dL
  Ca: 11.1 mg/dL
  Cl: 104.8 meq/L
  DBIL: 0.02 mg/dL
  GLC: 174.4 mg/dL
  IP: 7.1 mg/dL
  K: 3.8 meq/L
  LDH: 72.4 IU/L
  Na: 143.2 meq/L
  PL: 146.4 mg/dL
  RALB: 2.7 g/dL
  TBIL: 0.05 mg/dL
  TC: 70.4 mg/dL
  TG: 145 mg/dL
  TP: 6.2 g/dL
  gamma-GTP: 1 IU/L
[8]
  TERMINAL_BW: 440.9 g
  APTT: 16.1 s
  Bas: 0.2%
  Eos: 1%
  Fbg: 270.4 mg/dL
  Hb: 14.7 g/dL
  Ht: 41.8%
  Lym: 77.6%
  MCH: 19.6 pg
  MCHC: 35.1%
  MCV: 55.7 fL
  Mono: 1.4%
  Neu: 19.2%
  PT: 11.9 s
  Plat: 114.6 x10_4/uL
  RBC: 750.8 x10_4/ul
  Ret: 2.7%
  WBC: 114 x10_2/uL
  KIDNEY_L: 1.4 g
  KIDNEY_R: 1.4 g
  KIDNEY_TOTAL: 2.8 g
  LIVER: 17.9 g
  A/G: 0.8
  ALP: 1150 IU/L
  ALT: 34.2 IU/L
  AST: 57.6 IU/L
  BUN: 16 mg/dL
  CRE: 0.2 mg/dL
  Ca: 10.9 mg/dL
  Cl: 105.4 meq/L
  DBIL: 0.02 mg/dL
  GLC: 177.6 mg/dL
  IP: 6.5 mg/dL
  K: 4 meq/L
  LDH: 64 IU/L
  Na: 144.4 meq/L
  PL: 133 mg/dL
  RALB: 2.7 g/dL
  TBIL: 0.056 mg/dL
  TC: 67 mg/dL
  TG: 112.4 mg/dL
  TP: 6.4 g/dL
  gamma-GTP: 1 IU/L
